Patent US9624215B2, “Amine derivative or salt thereof” (TOYAMA CHEMICAL CO., LTD., priority 2012, dated 2017)

Experiments:
[1] = tested on: TNFα production in LPS-stimulated Raw264.7 cells; assay: TNFα production inhibition test; assay type: cell-based; conditions: Mus musculus, test compound 1 μmol/L, LPS 1 μg/mL, 16 hours, ELISA, read-out: Inhibition rate of TNFα production
Protocol: 7×10^4 mouse macrophage-derived cell line Raw264.7 cells were suspended in 100 μL of RPMI1640 medium containing 10% fetal bovine serum, plated in a 96-well plate and incubated overnight. The culture supernatant was removed and the test compound diluted in RPMI1640 medium containing 1% fetal bovine serum (final concentration: 1 μmol/L) was added. One hour after the addition, LPS (B4:0111) (Sigma-Aldrich, L2630) was added to a final concentration of 1 μg/mL. 16 hours after the stimulation, the culture supernatant was collected and the amount of TNFα produced in the culture supernatant was determined using ELISA kit (R&D Systems, MTA00B).
The inhibition rate was calculated from the following formula. Inhibition rate (%)=100−(amount of TNFα produced in the presence of test compound/amount of TNFα produced in the absence of test compound)×100

[2] = tested on: TPA-induced ear edema and acanthosis in Balb/c mice; assay: Mouse TPA-induced ear-swelling model; assay type: in vivo; conditions: topical, 240 h, 1% w/v solution, 20 μL applied to ear once a day from day 0 to day 9, female Balb/c mice, read-out: Inhibition rate of change in ear thickness on day 10
Protocol: Seven-week-old female Balb/c mice (Charles River Laboratories Japan) were used. 20 μL of a 20 ng/mL solution of TPA (Wako Pure Chemical Industries, 162-23591) dissolved in 5% DMSO/acetone was applied to the outer side of the mouse ear on day 0, day 2, day 4, day 7 and day 9 to induce ear edema and acanthosis. The test compound was dissolved in a 5% DMSO/acetone solution (concentration: 1% w/v) and 20 μL of the resulting solution was applied to the outer side of the ear once a day from day 0 to day 9. For the control group, a 5% DMSO/acetone solution was similarly applied. The TPA solution and the test compound solution were mixed and applied on the days for TPA application (day 0, day 2, day 4, day 7 and day 9). The ear thickness was chronologically measured on days 0-4 and days 7-10 using a micrometer (Mitutoyo, MDC-25MJT). The change in ear thickness and the inhibition rate were determined by the following formulas. Change in ear thickness=(ear thickness measured on day 10)−(ear thickness measured on day 0 before TPA application) Inhibition rate (%)=100−(change in ear thickness for test compound group/change in ear thickness for control group)×100

[3] = tested on: normal human neonatal foreskin epidermal keratinocytes (NHEK-F); assay: Cell proliferation inhibition test; assay type: cell-based; conditions: Keratinocyte, 72 h, NHEK-F cells, three days incubation, ATPlite or CellTiterGlo, read-out: IC50 (concentration of the compound at which the cell count is reduced by 50%)
Summary of the method: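 IC50 is the compound level halving cell count relative to untreated wells, with counts from ATP-based luminescence (ATPlite or CellTiterGlo). Readout followed 3 days of compound exposure of overnight-attached neonatal foreskin keratinocytes (2×10^3/well, Humedia-EG2 medium).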

Structure (SMILES) | inhibition at 1 µM [1] [%] | inhibition in vivo at 1 % strength [2] [%] | IC50 [3] [µM]
N#Cc1ccc(-n2ccc3cc(Nc4ccc(C5CC5)cc4C(=O)O)ccc32)cc1 [Example 106-1, 2-((1-(4-Cyanophenyl)-1H-indol-5-yl)amino)-5-cyclopropylbenzoic acid] | ≥ 50 |  | 
NC(=O)c1ccc(-n2ccc3cc(Nc4ccc(C5CC5)cc4C(=O)O)ccc32)cc1 [Example 106-2, 2-((1-(4-Carbamoylphenyl)-1H-indol-5-yl)amino)-5-cyclopropylbenzoic acid] | ≥ 50 |  | 
O=C(O)c1cc(Cl)ccc1Nc1ccc2c(c1)CCN(Cc1ccccc1)C2=O [Example 265, 2-((2-benzyl-1-oxo-1,2,3,4-tetrahydroisoquinolin-6-yl)amino)-5-chlorobenzoic acid] | ≥ 50 |  | 
COc1ccccc1-c1cc(Nc2ncc(C3CC3)cc2C(=O)O)cc2ccn(C)c12 [Example 485, 5-cyclopropyl-2-((7-(2-methoxyphenyl)-1-methyl-1H-indol-5-yl)amino)nicotinic acid] |  | ≥ 20 | ≤ 0.01
CCCCCCn1ccc2cc(Nc3ncc(C4CC4)cc3C(=O)O)ccc21 [Example 639, 5-cyclopropyl-2-((1-hexyl-1H-indol-5-yl)amino)nicotinic acid] |  | ≥ 20 | ≤ 0.01
CS(=O)(=O)NC(=O)c1cc(C2CC2)cnc1Nc1ccc2c(ccn2Cc2ccccc2)c1 [Example 149, 2-((1-benzyl-1H-indol-5-yl)amino)-5-cyclopropyl-N-(methylsulfonyl)nicotinamide] |  | ≥ 20 | 0.01 to 0.1
Cc1cc2c(ccn2Cc2ccccc2)cc1Nc1ncc(C2CC2)cc1C(=O)O [Example 585, 2-((1-benzyl-6-methyl-1H-indol-5-yl)amino)-5-cyclopropylnicotinic acid] |  | ≥ 20 | ≤ 0.01
O=C(O)c1cc(C2CC2)cnc1Nc1ccc2c(ccn2Cc2ccc(F)c(F)c2)c1 [Example 635, 5-cyclopropyl-2-((1-(3,4-difluorobenzyl)-1H-indol-5-yl)amino)nicotinic acid] |  | ≥ 20 | ≤ 0.01
O=C(O)c1cc(C2CC2)cnc1Nc1ccc2c(cnn2CC2CCCCC2)c1 [Example 543, 2-((1-(cyclohexylmethyl)-1H-indazol-5-yl)amino)-5-cyclopropylnicotinic acid] |  | ≥ 20 | ≤ 0.01
O=C(O)c1cc(C2CC2)cnc1Nc1ccc2c(ccn2Cc2ccc(F)cc2)c1 [Example 241, 5-cyclopropyl-2-((1-(4-fluorobenzyl)-1H-indol-5-yl)amino)nicotinic acid] |  | ≥ 20 | ≤ 0.01
Cn1ccc2cc(Nc3ncc(C4CC4)cc3C(=O)O)cc(CCC3CC3)c21 [Example 470, 5-cyclopropyl-2-((7-(2-cyclopropylethyl)-1-methyl-1H-indol-5-yl)amino)nicotinic acid] |  | ≥ 20 | ≤ 0.01
O=C(O)c1cc(C2CC2)cnc1Nc1ccc2c(ccn2CC2CCCC2)c1 [Example 138, 2-((1-(cyclopentylmethyl)-1H-indol-5-yl)amino)-5-cyclopropylnicotinic acid] |  | ≥ 20 | ≤ 0.01
Cn1ccc2cc(Nc3ncc(C4CC4)cc3C(=O)O)cc(-c3ccccc3)c21 [Example 222, 5-cyclopropyl-2-((1-methyl-7-phenyl-1H-indol-5-yl)amino)nicotinic acid] |  | ≥ 20 | ≤ 0.01
Cn1ccc2cc(Nc3ncc(C4CC4)cc3C(=O)O)cc(-c3cccc(-c4ccccc4)c3)c21 [Example 189, 2-((7-([1,1′-biphenyl]-3-yl)-1-methyl-1H-indol-5-yl)amino)-5-cyclopropylnicotinic acid] |  | ≥ 20 | ≤ 0.01
Cn1ccc2cc(Nc3ncc(C4CC4)cc3C(=O)O)cc(-c3ccc(F)cc3F)c21 [Example 588, 5-cyclopropyl-2-((7-(2,4-difluorophenyl)-1-methyl-1H-indol-5-yl)amino)nicotinic acid] |  | ≥ 20 | ≤ 0.01
Cc1ccccc1Cn1ccc2cc(Nc3ncc(C4CC4)cc3C(=O)O)ccc21 [Example 455, 5-cyclopropyl-2-((1-(2-methylbenzyl)-1H-indol-5-yl)amino)nicotinic acid] |  | ≥ 20 | ≤ 0.01

Structure (SMILES) | inhibition at 1 µM [1] [%] | inhibition in vivo at 1 % strength [2] [%] | IC50 [3] [µM]
O=C(O)c1cc(C2CC2)cnc1Nc1ccc2c(ccn2Cc2cc(F)ccc2F)c1 [Example 641, 5-cyclopropyl-2-((1-(2,5-difluorobenzyl)-1H-indol-5-yl)amino)nicotinic acid] |  | ≥ 20 | ≤ 0.01
O=C(O)c1cc(C2CC2)cnc1Nc1ccc2c(ccn2CCc2ccccc2)c1 [Example 619, 5-cyclopropyl-2-((1-(2-phenylethyl)-1H-indol-5-yl)amino)nicotinic acid] |  | ≥ 20 | ≤ 0.01
Cn1ccc2cc(Nc3ncc(C4CC4)cc3C(=O)O)cc(-c3ccccc3F)c21 [Example 464, 5-cyclopropyl-2-((7-(2-fluorophenyl)-1-methyl-1H-indol-5-yl)amino)nicotinic acid] |  | ≥ 20 | ≤ 0.01
Cn1cc(-c2ccccc2)c2cc(Nc3ncc(C4CC4)cc3C(=O)O)ccc21 [Example 153] |  | ≥ 20 | 0.01 to 0.1
O=C(O)c1cc(C2CC2)cnc1Nc1ccc2c(ccn2Cc2cccc(Cl)c2)c1 [Example 460, 2-((1-(3-chlorobenzyl)-1H-indol-5-yl)amino)-5-cyclopropylnicotinic acid] |  | ≥ 20 | ≤ 0.01
O=C(O)c1cc(C2CC2)cnc1Nc1ccc2c(ccn2Cc2ccccc2F)c1 [Example 458, 5-cyclopropyl-2-((1-(2-fluorobenzyl)-1H-indol-5-yl)amino)nicotinic acid] |  | ≥ 20 | ≤ 0.01
N#Cc1cccc(Cn2ccc3cc(Nc4ncc(C5CC5)cc4C(=O)O)ccc32)c1 [Example 453, 2-((1-(3-cyanobenzyl)-1H-indol-5-yl)amino)-5-cyclopropylnicotinic acid] |  | ≥ 20 | 0.01 to 0.1
O=C(O)c1cc(C2CC2)cnc1Nc1ccc2c(ccn2Cc2cccc(F)c2F)c1 [Example 642, 5-cyclopropyl-2-((1-(2,3-difluorobenzyl)-1H-indol-5-yl)amino)nicotinic acid] |  | ≥ 20 | ≤ 0.01
O=C(O)c1cc(C2CC2)cnc1Nc1ccc2c(ccn2Cc2cccc(C(F)(F)F)c2)c1 [Example 450, 5-cyclopropyl-2-((1-(3-(trifluoromethyl)benzyl)-1H-indol-5-yl)amino)nicotinic acid] |  | ≥ 20 | ≤ 0.01
Cc1cc(Nc2ncc(C3CC3)cc2C(=O)O)cc2ccn(Cc3cccc(F)c3)c12 [Example 621, 5-cyclopropyl-2-((1-(3-fluorobenzyl)-7-methyl-1H-indol-5-yl)amino)nicotinic acid] |  | ≥ 20 | ≤ 0.01
CCn1c(-c2ccccc2)cc2cc(Nc3ncc(C4CC4)cc3C(=O)O)ccc21 [Example 142, 5-cyclopropyl-2-((1-ethyl-2-phenyl-1H-indol-5-yl)amino)nicotinic acid] |  | ≥ 20 | 0.01 to 0.1
O=C(O)c1cc(C2CC2)cnc1Nc1ccc2c(ccn2-c2ccc(F)cc2)c1 [Example 233, 5-cyclopropyl-2-((1-(4-fluorophenyl)-1H-indol-5-yl)amino)nicotinic acid] |  | ≥ 20 | ≤ 0.01
O=C(O)c1cc(C2CC2)cnc1Nc1cccc2c1ccn2CC1CCC1 [Example 439, 2-((1-(cyclobutylmethyl)-1H-indol-4-yl)amino)-5-cyclopropylnicotinic acid] |  | ≥ 20 | ≤ 0.01
O=C(O)c1cc(C2CC2)cnc1Nc1ccc2c(ccn2Cc2ccc(F)cc2F)c1 [Example 633, 5-cyclopropyl-2-((1-(2,4-difluorobenzyl)-1H-indol-5-yl)amino)nicotinic acid] |  | ≥ 20 | ≤ 0.01
CC(C)Cn1ccc2cc(Nc3ncc(C4CC4)cc3C(=O)O)cc(-c3ccccc3)c21 [Example 224, 5-cyclopropyl-2-((1-isobutyl-7-phenyl-1H-indol-5-0)amino)nicotinic acid] |  | ≥ 20 | ≤ 0.01
